In patent US10821100B2, “Triazolone compounds as mPGES-1 inhibitors” (Glenmark Pharmaceuticals S.A., priority 2012, dated 2020) one finds inhibition and IC50 data, which are given here for 23 compounds.

The inhibition is the drop in the measured response relative to a control, in per cent. What is called IC50 is the concentration that gives 50% inhibition.

The target of this test is T1, Recombinant human mPGES-1 (Homo sapiens, UniProt O14684).
T1 construct: made in house; host or cells: CHO cells (crude microsomal fractions)
T1 sequence (O14684 1-152): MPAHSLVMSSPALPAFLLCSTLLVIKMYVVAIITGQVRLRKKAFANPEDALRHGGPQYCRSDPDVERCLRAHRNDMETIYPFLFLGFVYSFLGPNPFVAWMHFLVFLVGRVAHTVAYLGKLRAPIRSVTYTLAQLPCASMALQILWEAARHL
The experiment in a line: In-vitro screening of mPGES-1 inhibitors (inhibition of PGE2 formation from PGH2, HTRF detection). The note with it: mPGES-1 enzyme; for inhibition at 1 µM: 1 μM test compound, read-out: Percentage inhibition at 1 μM; for inhibition at 1 µM / inhibition at 10 µM: crude microsomal fractions; for inhibition at 10 µM: 10 μM test compound, read-out: Percentage inhibition at 10 μM; for IC50: class symbols. Format: biochemical. Summed up: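 PGH2-to-PGE2 isomerization run for 1 min with 15 μM PGH2 after 10 min compound preincubation with microsomal enzyme (40–60 μg/mL) and 2.5 mM GSH, pH buffer 0.1 M potassium phosphate with EDTA. Stannous chloride quench, HTRF PGE2 readout, IC50 fitted against uninhibited reaction.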
For orientation: In TR-FRET formats the signal depends on donor and acceptor labels being close together.

With `CC(C)(C)C(=O)NCc1ccc(Cl)c(-c2nn(-c3ccc(C(F)(F)F)cc3F)c(=O)[nH]2)c1` [Example-163, N-(4-Chloro-3-(1-(2-fluoro-4-(trifluoromethyl)phenyl)-4,5-dihydro-5-oxo-1H-1,2,4-triazol-3-yl)benzyl)pivalamide], the inhibition at 1 µM came to 91.8%, the inhibition at 10 µM amounted to 98.7% and the IC50 is below 50 nM.
For the compound `Cc1ccc(CNC(=O)C(C)C)c(C)c1-c1nn(-c2ccc(C#CC(C)(C)C)cc2)c(=O)[nH]1` [Example-164, N-(3-(4,5-Dihydro-1-(4-(3,3-dimethylbut-1-ynyl)phenyl)-5-oxo-1H-1,2,4-triazol-3-yl)-2,4-dimethylbenzyl)isobutyramide], the inhibition at 1 µM worked out at 98.3%, the inhibition at 10 µM was 97.2% and the half-maximal inhibitory concentration (IC50) was below 50 nM.
As for `Cc1ccc(CNC(=O)C(C)(C)C)c(C)c1-c1nn(-c2ccc(C#CC3CC3)cc2)c(=O)[nH]1` [Example-165, N-(3-(1-(4-(2-Cyclopropylethynyl)phenyl)-4,5-dihydro-5-oxo-1H-1,2,4-triazol-3-yl)-2,4-dimethylbenzyl)pivalamide], the inhibition at 1 µM stood at 97.9%, the inhibition at 10 µM was determined as 99.5% and the IC50 was below 50 nM.
`CC(C)(C)C(=O)NCc1ccc(Cl)c(-n2nc(-c3ccc(C#CC4CC4)c(F)c3)[nH]c2=O)c1` [Example-166, N-(4-Chloro-3-(3-(4-(2-cyclopropylethynyl)-3-fluorophenyl)-4,5-dihydro-5-oxo-1,2,4-triazol-1-yl)benzyl)pivalamide]: the inhibition at 1 µM turned out to be 99.7%, the inhibition at 10 µM worked out at 100% and the IC50 was below 50 nM.
Consider `CC(C)(C)C(=O)NCc1ccc(Cl)c(-c2nn(-c3ccc(C#CC4CC4)cc3)c(=O)[nH]2)c1` [Example-167, N-(4-Chloro-3-(1-(4-(2-cyclopropylethynyl)phenyl)-4,5-dihydro-5-oxo-1H-1,2,4-triazol-3-yl)benzyl)pivalamide], for which the inhibition at 1 µM is 99%, the inhibition at 10 µM stood at 98.4% and the IC50 is below 50 nM.
Take `CC(C)(C)C(=O)NCc1ccc(Cl)c(-n2nc(-c3ccc(C#CC4CC4)cc3F)[nH]c2=O)c1` [Example-168, N-(4-Chloro-3-(3-(4-(2-cyclopropylethynyl)-2-fluorophenyl)-4,5-dihydro-5-oxo-1,2,4-triazol-1-yl)benzyl)pivalamide]: the inhibition at 1 µM is 100%, the inhibition at 10 µM stood at 98.9% and the IC50 is below 50 nM.
Consider `Cc1ccc(CNC(=O)C(C)(C)CF)c(C)c1-c1nn(-c2ccc(C#CC3CC3)cc2)c(=O)[nH]1` [Example-169, N-(3-(1-(4-(2-Cyclopropylethynyl)phenyl)-4,5-dihydro-5-oxo-1H-1,2,4-triazol-3-yl)-2,4-dimethylbenzyl)-3-fluoro-2,2-dimethylpropanamide], for which the inhibition at 1 µM came out at 95.5%, the inhibition at 10 µM was determined as 99.2% and the IC50 is above 100 nM.
Taken in the same sequence, the figures for `Cc1ccc(CNC(=O)C(C)C)c(C)c1-c1nn(-c2ccc(C#CC(C)(C)C)c(F)c2)c(=O)[nH]1` [Example-170, N-(3-(1-(3-Fluoro-4-(3,3-dimethylbut-1-ynyl)phenyl)-4,5-dihydro-5-oxo-1H-1,2,4-triazol-3-yl)-2,4-dimethylbenzyl)isobutyramide] were 99.8%, 98.9% and below 50 nM.
Taken in the same sequence, the figures for `COc1cc(-c2nn(-c3c(Cl)cccc3Cl)c(=O)[nH]2)ccc1C#Cc1cc(Cl)ccc1Cl` [Example-171, 2-(2,6-Dichlorophenyl)-5-(4-(2-(2,5-dichlorophenyl)ethynyl)-3-methoxyphenyl)-2H-1,2,4-triazol-3 (4H)-one] were 95.2%, 99.6% and below 50 nM.
Turning to `Cc1cc(C)n(Cc2ccc(-c3nn(-c4cc(CNC(=O)C(C)(C)C)ccc4Cl)c(=O)[nH]3)cc2)n1` [Example-172, N-(4-Chloro-3-(4,5-dihydro-3-(4-((3,5-dimethyl-1H-pyrazol-1-yl)methyl)phenyl)-5-oxo-1,2,4-triazol-1-yl)benzyl)pivalamide], the inhibition at 1 µM turned out to be 91.9%, the inhibition at 10 µM was 99% and the IC50 was above 100 nM.
For `CC(C)(C)C(=O)NCc1ccc(Cl)c(-c2nn(-c3ccc(C(F)(F)F)c(F)c3)c(=O)[nH]2)c1F` [Example-173, N-(4-Chloro-2-fluoro-3-(1-(3-fluoro-4-(trifluoromethyl)phenyl)-4,5-dihydro-5-oxo-1H-1,2,4-triazol-3-yl)benzyl)pivalamide], in that order: 96.8%, 99% and below 50 nM.
Take `CC(C)(C)C(=O)NCc1ccc(Cl)c(-c2nn(-c3ccc(Cl)c(C(F)(F)F)c3)c(=O)[nH]2)c1F` [Example-174, N-(4-Chloro-3-(1-(4-chloro-3-(trifluoromethyl)phenyl)-4,5-dihydro-5-oxo-1H-1,2,4-triazol-3-yl)-2-fluorobenzyl)pivalamide]: the inhibition at 1 µM turned out to be 99.9%, the inhibition at 10 µM is 100% and the IC50 is below 50 nM.
On to `CC(C)(CF)C(=O)NCc1ccc(Cl)c(-c2nn(-c3ccc(C(F)(F)F)cc3)c(=O)[nH]2)c1` [Example-175, N-(4-Chloro-3-(1-(4-(trifluoromethyl)phenyl)-4,5-dihydro-5-oxo-1H-1,2,4-triazol-3-yl)benzyl)-3-fluoro-2,2-dimethylpropanamide], for which the inhibition at 1 µM was found to be 99.4%, the inhibition at 10 µM was found to be 99.4% and the IC50 was below 50 nM.
In the case of `COc1cc(-c2nn(-c3c(Cl)cccc3Cl)c(=O)[nH]2)ccc1NC(=O)c1ccc(C(F)(F)F)cc1` [Example-176, N-(4-(1-(2,6-Dichlorophenyl)-4,5-dihydro-5-oxo-1H-1,2,4-triazol-3-yl)-2-methoxyphenyl)-4-(trifluoromethyl)benzamide], the inhibition at 1 µM came out at 45.8% and the inhibition at 10 µM is 89.5%.
For `COc1cc(-c2nn(-c3c(Cl)cccc3Cl)c(=O)[nH]2)ccc1NC(=O)c1cc(F)cc(F)c1` [Example-177, N-(4-(1-(2,6-Dichlorophenyl)-4,5-dihydro-5-oxo-1H-1,2,4-triazol-3-yl)-2-methoxyphenyl)-3,5-difluorobenzamide], in that order: 29.9% and 71.1%.
Taken in the same sequence, the figures for `COc1cc(-c2nn(-c3c(Cl)cccc3Cl)c(=O)[nH]2)ccc1C(=O)Nc1cc(C(F)(F)F)ccc1F` [Example-178, 4-(1-(2,6-Dichlorophenyl)-4,5-dihydro-5-oxo-1H-1,2,4-triazol-3-yl)-N-(2-fluoro-5-(trifluoromethyl)phenyl)-2-methoxybenzamide] were 42.7% and 91.5%.
Take `COc1cc(-c2nn(-c3c(Cl)cccc3Cl)c(=O)[nH]2)ccc1C(=O)Nc1ccc(C)cc1Cl` [Example-179, N-(2-Chloro-4-methylphenyl)-4-(1-(2,6-dichlorophenyl)-4,5-dihydro-5-oxo-1H-1,2,4-triazol-3-yl)-2-methoxybenzamide]: the inhibition at 1 µM was found to be 50.6% and the inhibition at 10 µM came to 95.2%.
`CC(C)(C)C(=O)NCc1cnc(C2CC2)c(-c2nn(-c3ccc(C(F)(F)F)cc3)c(=O)[nH]2)c1` [Example-180, N-((6-Cyclopropyl-5-(1-(4-(trifluoromethyl)phenyl)-4,5-dihydro-5-oxo-1H-1,2,4-triazol-3-yl)pyridin-3-yl)methyl)pivalamide]: the inhibition at 1 µM turned out to be 72.3%, the inhibition at 10 µM worked out at 92.5% and the IC50 is above 100 nM.
As to `CC(C)(C)C(=O)NCc1ccc(Cl)c(-c2nn(-c3ccc(C#CC4CC4)cc3F)c(=O)[nH]2)c1` [Example-181, N-(4-Chloro-3-(1-(4-(2-cyclopropylethynyl)-2-fluorophenyl)-4,5-dihydro-5-oxo-1H-1,2,4-triazol-3-yl)benzyl)pivalamide], the inhibition at 1 µM is 88.2%, the inhibition at 10 µM amounted to 94.3% and the IC50 is below 50 nM.
Taken in the same sequence, the figures for `CC(C)(C)S(=O)(=O)NCc1ccc(Cl)c(-c2nn(-c3ccc(C(F)(F)F)cc3)c(=O)[nH]2)c1` [Example-182, N-(4-Chloro-3-(5-oxo-1-(4-(trifluoromethyl)phenyl)-4,5-dihydro-1H-1,2,4-triazol-3-yl)benzyl)-2-methylpropane-2-sulfonamide] were 92.9%, 94% and below 50 nM.
Turning to `N#Cc1cnc(C(F)F)c(-c2nn(-c3ccc(C(F)(F)F)cc3)c(=O)[nH]2)c1` [Example-183, 6-(Difluoromethyl)-5-(5-oxo-1-(4-(trifluoromethyl)phenyl)-4,5-dihydro-1H-1,2,4-triazol-3-yl)nicotinonitrile], the inhibition at 1 µM came out at 41.5% and the inhibition at 10 µM was 85.5%.
Consider `O=C(NCc1ccc(Cl)c(-c2nn(-c3ccc(C(F)(F)F)cc3)c(=O)[nH]2)c1)C1CCC1` [Example-184, N-(4-Chloro-3-(5-oxo-1-(4-(trifluoromethyl)phenyl)-4,5-dihydro-1H-1,2,4-triazol-3-yl)benzyl)cyclobutanecarboxamide], for which the inhibition at 1 µM amounted to 98.6%, the inhibition at 10 µM was 94.3% and the 50% inhibitory concentration (IC50) was below 50 nM.
For `O=C(NCc1ccc(Cl)c(-c2nn(-c3ccc(C(F)(F)F)cc3)c(=O)[nH]2)c1)C1CCCC1` [Example-185, N-(4-Chloro-3-(5-oxo-1-(4-(trifluoromethyl)phenyl)-4,5-dihydro-1H-1,2,4-triazol-3-yl)benzyl)cyclopentanecarboxamide], in that order: 96.1%, 98.3% and below 50 nM.
